# Experiment: logP determination by HPLC (EEC Directive 79/831 Annex V. A8)
# Format: physicochemical
# Method: The logP values were determined in accordance with EEC Directive 79/831 Annex V. A8 by HPLC (gradient method, acetonitrile/0.1% aqueous phosphoric acid (s) or gradient method, acetonitrile/0.1% water (n))
row,chromatographic logP,Structure (SMILES)
1,3.5,"CO/N=C(SC)/C(C)=N/OCc1ccccc1/C(=C\C(=O)OC)OC [Example 1, methyl 3-methoxy-3-[2-(2-methoxyamino-1-methyl-2-methylthio-ethylideneaminooxymethyl)-phenyl]-acrylate]"
2,2.79,"CO/N=C(/C(C)=N/OCc1ccccc1/C(=C\C(=O)OC)OC)S(C)(=O)=O [Example 2, methyl 3-[2-(2-methanesulfonyl-2-methoxyimino-1-methyl-ethylideneaminooxymethyl)-phenyl]-3-methoxy-acrylate]"
3,3.05,"CO/N=C(OC)/C(C)=N/OCc1ccccc1/C(=C\C(=O)OC)OC [Example 3, methyl 3-methoxy-3-[2-(2-methoxy-2-methoxyimino-1-methyl-ethylideneaminooxymethyl)-phenyl]-acrylate]"
